# Patent publication US20090215752A1, “Compounds, preparation and therapeutic use thereof” (priority 2005, published 2009)
# Target: T1, sigma 1 receptors (Cavia porcellus, UniProt Q60492)
# T1 construct: The sigma 1 receptors were isolated from guinea pig cerebral cortex; from tissue; host or cells: guinea pig cerebral cortex
# Assay: Sigma 1 receptor binding ([3H](+)pentazocine)
# Settings: [3H](+)pentazocine 2 nM, guinea pig cerebral cortex, read-out: σ1 percentage inhibition at 10 μM
# Method: The sigma 1 receptors were isolated from guinea pig cerebral cortex according to the method described in Bowen et al., 1993.
# Sigma 1 receptor binding was determined by a radioligand method using tritium-labelled (+)pentazocine (2 nM) as substrate (Bowen et al., 1993). Sigma 2 receptor binding was determined by a radioligand method using tritium-labelled DTG (+300 nM (+)pentazocine) (5 nM) as substrate (Bowen et al., 1993). Ligand radioactivity was determined by liquid scintillation counting. For sigma 1 binding evaluation, ligand incubations were carried out for one hundred fifty minutes at 22° C. For sigma 2 binding evaluation, ligand incubations were carried out for one hundred twenty minutes at 22° C. The experiments were conducted in duplicate.
# The specific ligand binding to the sigma receptors was defined as the difference between the total binding and the non specific binding determined in presence of an excess of unlabelled ligand. The results obtained are presented in Table 4 hereinbelow and are expressed as percent of control specific binding and as a percent inhibition of control specific binding obtained in presence of 10 μM of substance.
# T1 sequence (Q60492 whole entry): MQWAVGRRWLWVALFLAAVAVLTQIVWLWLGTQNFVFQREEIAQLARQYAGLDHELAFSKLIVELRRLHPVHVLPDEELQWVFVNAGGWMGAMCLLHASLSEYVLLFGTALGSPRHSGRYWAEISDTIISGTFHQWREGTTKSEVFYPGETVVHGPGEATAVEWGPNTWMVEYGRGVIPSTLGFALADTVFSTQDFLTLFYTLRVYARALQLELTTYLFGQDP
compound,measurement,value
"COc1cc2c(c(OC)c1-c1ccccc1)C(c1cccc(C(N)=O)c1)=NCC(=O)N2C [Compound 17, 3-(6,8-Dimethoxy-1-methyl-2-oxo-7-phenyl-2,3-dihydro-1H-benzo[e][1,4]diazepin-5-yl)-benzamide]",inhibition at 10 µM,93%
